Results from patent US6979666B2, “Dithianon-based fungicidal mixtures” (BASF Aktiengesellschaft, priority 2002, dated 2005).

Tested on: Alternaria solani
Test: Activity against early blight of tomato caused by Alternaria solani (protective spray on potted tomato plants)
Assay type: in vivo
Details: tomato leaves, rated after 5 days, untreated control 72% infection
Procedure: The active compounds, separately or together, were prepared as a stock solution with 0.25% by weight of active compound in acetone or DMSO. 1% by weight of the emulsifier Uniperol® EL (wetting agent having emulsifying and dispersing action based on ethoxylated alkylphenols) was added to this solution, and the solution was diluted with water to the desired concentration.
Use example: Activity against early blight of tomato caused by Alternaria solani
Leaves of potted plants of the cultivar “Groβe Fleischtomate St. Pierre” were sprayed to runoff point with an aqueous suspension having the concentration of active compound stated below. The next day, the leaves were infected with an aqueous spore suspension of Alternaria solani in a 2% strength biomalt solution having a density of 0.17×10^6 spores/ml. The plants were then placed in a water-vapor-saturated chamber at 20–22° C. After 5 days, the early blight on the untreated, but infected control plants had developed to such an extent that the infection could be determined visually in %.
Evaluation is carried out by determining the infected leaf areas in percent. These percentages are converted into efficacies.
The efficacy (E) is calculated as follows using Abbot's formula: E=(1−α/β)·100 • α corresponds to the fungal infection of the treated plants in % and • β corresponds to the fungal infection of the untreated (control) plants in %
An efficacy of 0 means that the infection level of the treated plants corresponds to that of the untreated control plants; an efficacy of 100 means that the treated plants were not infected.
The expected efficacies of the active compound mixtures are determined using Colby's formula [S.R. Colby, Weeds 15, 20–22 (1967)] and compared with the observed efficacies.
Colby's Formula: E=x+y−x·y/100 • E expected efficacy, expressed in percent of the untreated control, when using the mixture of the active compounds A and B at the concentrations a and b • x efficacy, expressed in % of the untreated control, when using active compound A at a concentration of a • y efficacy, expressed in % of the untreated control, when using active compound B at a concentration of b

[1] = 8 ppm active compound in the spray liquid
[2] = 16 ppm active compound in the spray liquid
[3] = 63 ppm active compound in the spray liquid
[4] = 31 ppm active compound in the spray liquid

SMILES: Cc1cc(C2CC2)nc(Nc2ccccc2)n1 [II-2, cyprodinil]
- Efficacy in % of the untreated control [1]: 44%
- Efficacy in % of the untreated control [2]: 72%
- Efficacy in % of the untreated control [3]: 86%

SMILES: Cc1cc(C)nc(Nc2ccccc2)n1 [II-1, pyrimethanil]
- Efficacy in % of the untreated control [1]: 0%
- Efficacy in % of the untreated control [2]: 0%
- Efficacy in % of the untreated control [4]: 0%
- Efficacy in % of the untreated control [3]: 0%

SMILES: N#Cc1sc2c(=O)c3ccccc3c(=O)c=2sc1C#N [I, dithianon]
- Efficacy in % of the untreated control [1]: 44%
- Efficacy in % of the untreated control [2]: 65%
- Efficacy in % of the untreated control [4]: 79%
- Efficacy in % of the untreated control [3]: 86%
